≈ marks a conversion by molar mass, not a printed value. Blank lines part the entries; values can stand above or below the compound they belong to.
Assays:
P388 = assay: Cytotoxicity against mouse P388 cells by MTT colorimetric assay; assay type: functional, cell-based
Lung NSCLC-N6 cell-line = assay: Cytotoxicity against human Lung NSCLC-N6 cell-line by MTT colorimetric assay; assay type: functional, cell-based
A2780 = assay: Cytotoxicity against human A2780 cells incubated for 48 hrs; assay type: functional, cell-based; conditions: A2780, 48 h
Jurkat = assay: Cytotoxicity against human Jurkat cells incubated for 16 hrs by MTS colorimetric assay; assay type: functional, cell-based
SW1573 = assay: Antiproliferative activity against human SW1573 cells assessed as inhibition of cell proliferation incubated for 48 hrs by SRB assay; assay type: functional, cell-based; conditions: SW1573, 48 h
HBL-100 = assay: Antiproliferative activity against human HBL-100 cells assessed as inhibition of cell proliferation incubated for 48 hrs by SRB assay; assay type: functional, cell-based; conditions: HBL-100, 48 h
A549 = assay: Antiproliferative activity against human A549 cells assessed as inhibition of cell proliferation incubated for 48 hrs by SRB assay; assay type: functional, cell-based; conditions: A549, 48 h
WiDr = assay: Antiproliferative activity against human WiDr cells assessed as inhibition of cell proliferation incubated for 48 hrs by SRB assay; assay type: functional, cell-based
HeLa = assay: Antiproliferative activity against human HeLa cells assessed as inhibition of cell proliferation incubated for 48 hrs by SRB assay; assay type: functional, cell-based
T47D = assay: Antiproliferative activity against human T47D cells assessed as inhibition of cell proliferation incubated for 48 hrs by SRB assay; assay type: functional, cell-based
SW480 = assay: Cytotoxicity against human SW480 cells; assay type: functional, cell-based
SAOS-2 = assay: Cytotoxicity against human SAOS-2 cells; assay type: functional, cell-based
MRC5 = assay: Cytotoxicity against human MRC5 cells; assay type: functional, cell-based
NCI-H460 = assay: Cytotoxicity against human NCI-H460 cells; assay type: functional, cell-based
HFF = assay: Cytotoxicity against human HFF cells; assay type: functional, cell-based
HT-29 = assay: Cytotoxicity against human HT-29 cells; assay type: functional, cell-based
DLD-1 = assay: Cytotoxicity against human DLD-1 cells; assay type: functional, cell-based
MCF7 = assay: Antiproliferative activity against human MCF7 cells assessed as inhibition of cell proliferation incubated for 24 hrs by trypan blue assay; assay type: functional, cell-based; conditions: MCF7, 24 h
HL-60 [1] = assay: Induction of apoptosis in human HL-60 cells at 5 uM incubated for 24 hrs by Annexin V-FITC/PI based flow cytometric analysis; assay type: functional
THP-1 = assay: Cytotoxicity against human THP-1 cells assessed as inhibition of cell growth incubated for 22 hrs by MTS spectrophotometric assay; assay type: functional, cell-based; conditions: THP-1, 22 h
HL-60 [2] = assay: Cytotoxicity against human HL-60 cells assessed as inhibition of cell growth incubated for 22 hrs by MTS spectrophotometric assay; assay type: functional, cell-based; conditions: HL-60, 22 h
COLO 205 = assay: Antiproliferative activity against human COLO 205 cells assessed as cell growth inhibition; assay type: functional, cell-based
HL-60 [3] = assay: Antiproliferative activity against human HL-60 cells assessed as cell growth inhibition; assay type: functional, cell-based

SMILES: CO[C@@H]1/C=C(\C)C[C@H](/C=C/C#C[C@H]2C[C@@H]2Cl)OC(=O)[C@@H](C)[C@]2(O)C[C@H](O[C@@H]3O[C@@H](C)[C@H](O)[C@@](C)(O)[C@H]3OC)[C@@H](C)[C@@H](O2)[C@@H]1C
IC50 (P388): 15.3 µg/mL (≈ 23.8 µM)
IC50 (Lung NSCLC-N6 cell-line): 11.3 µg/mL (≈ 17.6 µM)
IC50 (A2780): 20.2 µM

SMILES: CCCCCCCCCCCCCCCCn1cc(CO[C@@H]2O[C@H](CO)[C@@H](O)[C@H](O)[C@H]2O)nn1
IC50 (Jurkat): 24 µM

IC50 (SW1573): 30 µM
IC50 (A549): 30 µM
IC50 (HeLa): 30 µM
IC50 (T47D): 30 µM
SMILES: CCCCCCCCN[C@@H]1[C@H](O)[C@@H](O)[C@@H](O)[C@H]2COC(=O)N21
IC50 (HBL-100): 30 µM
IC50 (WiDr): 30 µM

SMILES: C[C@@H](N)[C@H](O)CCCCCCCC(=O)CCCCCCCCCCCCCC[C@H](O)[C@H](N)CO[C@@H]1O[C@H](CO)[C@@H](O)[C@H](O)[C@H]1O
IC50 (SW480): 3 µg/mL (≈ 4.62 µM)
IC50 (SAOS-2): 3 µg/mL (≈ 4.62 µM)
IC50 (MRC5): 3 µg/mL (≈ 4.62 µM)
IC50 (NCI-H460): 3 µg/mL (≈ 4.62 µM)
IC50 (HFF): 3 µg/mL (≈ 4.62 µM)
IC50 (HT-29): 3 µg/mL (≈ 4.62 µM)
IC50 (DLD-1): 3 µg/mL (≈ 4.62 µM)

IC50 (MCF7): 22 µM
SMILES: CCCCCCCC[C@@H]1[C@H](O)[C@@H](O)[C@H](O)[C@H]2COC(=O)N12

SMILES: C[C@@H](N)[C@H](O)CCCCCCCCCCCCCCC(=O)CCCCCCC[C@@H](O)[C@@H](C)N
Activity (HL-60 [1]): 93%

SMILES: C[C@@H](N)[C@H](O)CCCCCCCC(=O)CCCCCCCCCCCCCC[C@H](O[C@@H]1O[C@H](CO)[C@H](O)[C@H](O)[C@H]1O)[C@@H](C)N
IC50 (THP-1): 1.7 µM
IC50 (HL-60 [2]): 1.7 µM

SMILES: CN[C@H]1[C@@H](O)C[C@H](O[C@H]2C/C=C(\C)C/C(C)=C/C=C/CC[C@H](C)CNC(=O)/C=C/C=C/[C@@H]2C)O[C@@H]1C [VICENISTATIN]
IC50 (COLO 205): 0.19 µg/mL (≈ 0.379 µM)
IC50 (HL-60 [3]): 0.12 µg/mL (≈ 0.24 µM)

Reference: ChEMBL document CHEMBL5260828, “Amphiphilic glycoconjugates as potential anti-cancer chemotherapeutics” (Eur J Med Chem, 2018)
